Results: the OligoGym collection
Where “and” joins values, the source holds several entries; their conditions need not be identical. Equal entries are not always repeated. After the bases stand the sugars from the 5' end (letter, count) and the backbone: PS all phosphorothioate, else s phosphorothioate and o phosphodiester by linkage. Methylation of C is not given here. e = 2'-O-(2-methoxyethyl) (MOE); k = constrained ethyl (cEt); d = 2'-deoxy (DNA)

Target: IRF4
Conditions: ASO

CTCTTCAGGCACCCAC (sugars k3 d10 k3, PS)
target mRNA inhibition (MM.1R, 1 µM): 13%

CTGAAGCTTAGTTATC (sugars k3 d10 k3, PS)
target mRNA inhibition (SK-MEL-28, 4 µM): 38%

CTGAGATAAGAAGCAC (sugars k3 d10 k3, PS)
target mRNA inhibition (SK-MEL-28, 4 µM): 37%

CTGCAACTGGCTCACT (sugars k3 d10 k3, PS)
target mRNA inhibition (SK-MEL-28, 4 µM): 10%

CTGCAGGGTAATTTAG (sugars k3 d10 k3, PS)
target mRNA inhibition (SK-MEL-28, 4 µM): 34%

CTGCATCGAGATCAGT (sugars k3 d10 k3, PS)
target mRNA inhibition (SK-MEL-28, 4 µM): 52%

CTGCATGAAAGTGTGT (sugars k3 d10 k3, PS)
target mRNA inhibition (SK-MEL-28, 4 µM): 56%

CTGCCACTGGTAACTG (sugars k3 d10 k3, PS)
target mRNA inhibition (MM.1R, 1 µM): 21%

CTGCGGGTCCTCCAGG (sugars k3 d10 k3, PS)
target mRNA inhibition (SK-MEL-28, 4 µM): 20%

CTGCTCTGGCACAGTC (sugars k3 d10 k3, PS)
target mRNA inhibition (SK-MEL-28, 4 µM): 83%

CTGCTTGAGGTTTTCC (sugars k3 d9 k3 e1, PS)
target mRNA inhibition (MM.1R, 0.074 µM): 18%
target mRNA inhibition (MM.1R, 0.222 µM): 36%
target mRNA inhibition (MM.1R, 0.666 µM): 60%
target mRNA inhibition (MM.1R, 1 µM): 65%
target mRNA inhibition (MM.1R, 2 µM): 82%

CTGCTTGAGGTTTTCC (sugars kkdddddddddekeke, PS)
target mRNA inhibition (MM.1R, 1 µM): 49%

CTGCTTGAGGTTTTCC (sugars kkdddddddddkekek, PS)
target mRNA inhibition (MM.1R, 1 µM): 30%

CTGGATTGCTGATGTG (sugars k3 d10 k3, PS)
target mRNA inhibition (MM.1R, 1 µM): 56% and 36%
target mRNA inhibition (MM.1R, 4 µM): 83% and 71%

CTGGCCTGAAGCTTAG (sugars k3 d10 k3, PS)
target mRNA inhibition (MM.1R, 1 µM): 25%

CTGTAACAGGCTATCA (sugars k3 d10 k3, PS)
target mRNA inhibition (SK-MEL-28, 4 µM): 44%

CTGTATCATGCATACC (sugars k3 d10 k3, PS)
target mRNA inhibition (SK-MEL-28, 4 µM): 61%

CTGTATTTATGCCCTC (sugars k3 d10 k3, PS)
target mRNA inhibition (SK-MEL-28, 4 µM): 60%

CTGTCACCTGGCAACC (sugars k3 d10 k3, PS)
target mRNA inhibition (MM.1R, 1 µM): 11%

CTGTGTAATGTAGGGA (sugars k3 d10 k3, PS)
target mRNA inhibition (SK-MEL-28, 4 µM): 42%

CTGTTACCGATGCTTC (sugars k2 d9 e3 k2, PS)
target mRNA inhibition (MM.1R, 1 µM): 64% and 56%

CTGTTACCGATGCTTC (sugars k3 d10 k3, PS)
target mRNA inhibition (MM.1R, 0.0625 µM): 18%
target mRNA inhibition (MM.1R, 0.25 µM): 36%
target mRNA inhibition (MM.1R, 1 µM): 56% and 55%
target mRNA inhibition (MM.1R, 4 µM): 82%

CTGTTACCGATGCTTC (sugars kkdddddddddekeke, PS)
target mRNA inhibition (MM.1R, 1 µM): 50% and 60%

CTGTTACCGATGCTTC (sugars kkdddddddddkdkdk, PS)
target mRNA inhibition (MM.1R, 1 µM): 58% and 52%

CTTAAGCAAGTGGAGG (sugars k3 d10 k3, PS)
target mRNA inhibition (SK-MEL-28, 4 µM): 70%

CTTAGTCAGAATCTGT (sugars k3 d10 k3, PS)
target mRNA inhibition (MM.1R, 1 µM): 1%

CTTATTAGACTGACAG (sugars k3 d10 k3, PS)
target mRNA inhibition (SK-MEL-28, 4 µM): 41%

CTTATTTGTGGCTCAA (sugars k3 d10 k3, PS)
target mRNA inhibition (SK-MEL-28, 4 µM): 55%

CTTCCCTGAGAAATGG (sugars k4 d8 k4, PS)
target mRNA inhibition (SK-MEL-28, 4 µM): 36%

CTTCTTTATAGTAGGT (sugars k3 d10 k3, PS)
target mRNA inhibition (SK-MEL-28, 4 µM): 20%

CTTGGCAGGGAGCGGC (sugars k3 d10 k3, PS)
target mRNA inhibition (MM.1R, 1 µM): 25%

CTTTATCAAGACAAGG (sugars k3 d10 k3, PS)
target mRNA inhibition (SK-MEL-28, 4 µM): 56%

CTTTGGGCACCAAAAG (sugars k3 d10 k3, PS)
target mRNA inhibition (MM.1R, 1 µM): -33%

GAAACGAGCCAGTGCA (sugars k3 d10 k3, PS)
target mRNA inhibition (SK-MEL-28, 4 µM): 52%

GAAACGGCCTGGAGGT (sugars k3 d10 k3, PS)
target mRNA inhibition (MM.1R, 1 µM): 17%

GAAAGAGCTGGTAGGT (sugars k3 d10 k3, PS)
target mRNA inhibition (SK-MEL-28, 4 µM): 0%

GAAATAGCATCAGAGC (sugars k3 d10 k3, PS)
target mRNA inhibition (SK-MEL-28, 4 µM): 45%

GAAATCACGAGGTTGC (sugars k3 d10 k3, PS)
target mRNA inhibition (MM.1R, 0.0625 µM): -6%
target mRNA inhibition (MM.1R, 0.074 µM): -3%
target mRNA inhibition (MM.1R, 0.222 µM): 16%
target mRNA inhibition (MM.1R, 0.25 µM): 9%
target mRNA inhibition (MM.1R, 0.666 µM): 22%
target mRNA inhibition (MM.1R, 1 µM): 32%
target mRNA inhibition (MM.1R, 2 µM): 52%
target mRNA inhibition (MM.1R, 4 µM): 64%
target mRNA inhibition (SK-MEL-28, 4 µM): 62%

GAAATGTGTTGGAAGA (sugars k3 d10 k3, PS)
target mRNA inhibition (SK-MEL-28, 4 µM): 68%

GAACAAAAGGTTCCCG (sugars k3 d10 k3, PS)
target mRNA inhibition (SK-MEL-28, 4 µM): 18%

GAACAAGTGTATCTTT (sugars k3 d10 k3, PS)
target mRNA inhibition (MM.1R, 1 µM): 5%

GAACCACAAGCAGTGA (sugars k3 d10 k3, PS)
target mRNA inhibition (MM.1R, 1 µM): -32%

GAACCTGCTGGGCTGG (sugars k3 d10 k3, PS)
target mRNA inhibition (SK-MEL-28, 4 µM): 36%

GAACTAATGTCCCCAG (sugars k3 d10 k3, PS)
target mRNA inhibition (SK-MEL-28, 4 µM): 61%

GAAGAGTTGGCGGTGG (sugars k3 d10 k3, PS)
target mRNA inhibition (SK-MEL-28, 4 µM): 15%

GAAGCATAGAACAGAT (sugars k3 d10 k3, PS)
target mRNA inhibition (SK-MEL-28, 4 µM): 51%
